According to ChEMBL document CHEMBL4507256 (2021):

Experiments:
[1] = biological target: Macrophage colony-stimulating factor 1 receptor (Homo sapiens) (UniProt P07333); settings: Compound concentration 1000.0 nM
[2] = test system: Proto-oncogene tyrosine-protein kinase receptor Ret (Homo sapiens), P07949 [V804M]; settings: Compound concentration 1000.0 nM
[3] = biological target: Serine/threonine-protein kinase DCLK3 (Homo sapiens) (UniProt Q9C098); settings: Compound concentration 1000.0 nM
[4] = biological target: Homeodomain-interacting protein kinase 2 (Homo sapiens) (UniProt Q9H2X6); settings: Compound concentration 1000.0 nM
[5] = biological target: Rhodopsin kinase GRK7 (Homo sapiens) (UniProt Q8WTQ7); settings: Compound concentration 1000.0 nM
[6] = biological target: Fibroblast growth factor receptor 4 (Homo sapiens) (UniProt P22455); settings: Compound concentration 1000.0 nM
[7] = biological target: Ephrin type-B receptor 4 (Homo sapiens) (UniProt P54760); settings: Compound concentration 1000.0 nM
[8] = biological target: Serine/threonine-protein kinase 17B (Homo sapiens) (UniProt O94768); settings: Compound concentration 1000.0 nM
[9] = test system: Proto-oncogene tyrosine-protein kinase receptor Ret (Homo sapiens), P07949 [V804L]; settings: Compound concentration 1000.0 nM
[10] = biological target: GABA-A receptor; anion channel (Rattus norvegicus) (UniProt O09028+P15431+P18506+P18508+P19969+P20236+P23574+P23576+P28471+P28473+P30191+P62813+P63079+P63138+Q91ZM7+Q9ES14); settings: Compound concentration 10.0 uM
[11] = biological target: Alpha-1D adrenergic receptor (Homo sapiens) (UniProt P25100); settings: Compound concentration 10.0 uM
[12] = biological target: Serine/threonine-protein kinase PLK2 (Homo sapiens) (UniProt Q9NYY3); settings: Compound concentration 1000.0 nM
[13] = biological target: Mitogen-activated protein kinase 4 (Homo sapiens) (UniProt P31152); settings: Compound concentration 1000.0 nM
[14] = biological target: Serine/threonine-protein kinase N1 (Homo sapiens) (UniProt Q16512); settings: Compound concentration 1000.0 nM
[15] = biological target: Cyclin-dependent kinase 16 (Homo sapiens) (UniProt Q00536); settings: Compound concentration 1000.0 nM
[16] = biological target: Phosphorylase b kinase gamma catalytic chain, skeletal muscle/heart isoform (Homo sapiens) (UniProt Q16816); settings: Compound concentration 1000.0 nM
[17] = biological target: Serine/threonine-protein kinase 24 (Homo sapiens) (UniProt Q9Y6E0); settings: Compound concentration 1000.0 nM
[18] = biological target: Homeodomain-interacting protein kinase 1 (Homo sapiens) (UniProt Q86Z02); settings: Compound concentration 1000.0 nM
[19] = biological target: Maternal embryonic leucine zipper kinase (Homo sapiens) (UniProt Q14680); settings: Compound concentration 1000.0 nM
[20] = biological target: Receptor-interacting serine/threonine-protein kinase 4 (Homo sapiens) (UniProt P57078); settings: Compound concentration 1000.0 nM
[21] = biological target: NUAK family SNF1-like kinase 1 (Homo sapiens) (UniProt O60285); settings: Compound concentration 1000.0 nM
[22] = biological target: Epidermal growth factor receptor (Homo sapiens) (UniProt P00533); settings: Compound concentration 1000.0 nM
[23] = biological target: Vascular endothelial growth factor receptor 3 (Homo sapiens) (UniProt P35916); settings: Compound concentration 1000.0 nM
[24] = biological target: Interferon-induced, double-stranded RNA-activated protein kinase (Homo sapiens) (UniProt P19525); settings: Compound concentration 1000.0 nM
[25] = biological target: Serine/threonine-protein kinase BRSK2 (Homo sapiens) (UniProt Q8IWQ3); settings: Compound concentration 1000.0 nM
[26] = biological target: Phosphatidylinositol 4,5-bisphosphate 3-kinase catalytic subunit beta isoform (Homo sapiens) (UniProt P42338); settings: Compound concentration 1000.0 nM
[27] = biological target: Aurora kinase A (Homo sapiens) (UniProt O14965); settings: Compound concentration 1000.0 nM
[28] = biological target: Sodium-dependent serotonin transporter (Homo sapiens) (UniProt P31645); settings: Compound concentration 10.0 uM
[29] = biological target: Mitotic checkpoint serine/threonine-protein kinase BUB1 (Homo sapiens) (UniProt O43683); settings: Compound concentration 1000.0 nM
[30] = biological target: Dual specificity tyrosine-phosphorylation-regulated kinase 1B (Homo sapiens) (UniProt Q9Y463); settings: Compound concentration 1000.0 nM
[31] = biological target: Serine/threonine-protein kinase TAO3 (Homo sapiens) (UniProt Q9H2K8); settings: Compound concentration 1000.0 nM
[32] = biological target: Insulin-like growth factor 1 receptor (Homo sapiens) (UniProt P08069); settings: Compound concentration 1000.0 nM
[33] = biological target: Serine/threonine-protein kinase OSR1 (Homo sapiens) (UniProt O95747); settings: Compound concentration 1000.0 nM
[34] = biological target: Ribosomal protein S6 kinase alpha-5 (Homo sapiens) (UniProt O75582); settings: Compound concentration 1000.0 nM
[35] = test system: Hepatocyte growth factor receptor (Homo sapiens), P08581 [M1250T]; settings: Compound concentration 1000.0 nM
[36] = biological target: Receptor tyrosine-protein kinase erbB-3 (Homo sapiens) (UniProt P21860); settings: Compound concentration 1000.0 nM
[37] = biological target: Mitogen-activated protein kinase kinase kinase kinase 5 (Homo sapiens) (UniProt Q9Y4K4); settings: Compound concentration 1000.0 nM
[38] = biological target: Serine/threonine-protein kinase Nek3 (Homo sapiens) (UniProt P51956); settings: Compound concentration 1000.0 nM
[39] = biological target: Tyrosine-protein kinase Fer (Homo sapiens) (UniProt P16591); settings: Compound concentration 1000.0 nM
[40] = biological target: Tyrosine-protein kinase ITK/TSK (Homo sapiens) (UniProt Q08881); settings: Compound concentration 1000.0 nM
[41] = biological target: Serine/threonine-protein kinase PknB (Mycobacterium tuberculosis) (UniProt P9WI81); settings: Compound concentration 1000.0 nM
[42] = biological target: Cyclin-dependent kinase 9 (Homo sapiens) (UniProt P50750); settings: Compound concentration 1000.0 nM
[43] = biological target: Serine/threonine-protein kinase ICK (Homo sapiens) (UniProt Q9UPZ9); settings: Compound concentration 1000.0 nM

Sequence of Serine/threonine-protein kinase BRSK2 (Homo sapiens) (Q8IWQ3 whole entry, canonical isoform): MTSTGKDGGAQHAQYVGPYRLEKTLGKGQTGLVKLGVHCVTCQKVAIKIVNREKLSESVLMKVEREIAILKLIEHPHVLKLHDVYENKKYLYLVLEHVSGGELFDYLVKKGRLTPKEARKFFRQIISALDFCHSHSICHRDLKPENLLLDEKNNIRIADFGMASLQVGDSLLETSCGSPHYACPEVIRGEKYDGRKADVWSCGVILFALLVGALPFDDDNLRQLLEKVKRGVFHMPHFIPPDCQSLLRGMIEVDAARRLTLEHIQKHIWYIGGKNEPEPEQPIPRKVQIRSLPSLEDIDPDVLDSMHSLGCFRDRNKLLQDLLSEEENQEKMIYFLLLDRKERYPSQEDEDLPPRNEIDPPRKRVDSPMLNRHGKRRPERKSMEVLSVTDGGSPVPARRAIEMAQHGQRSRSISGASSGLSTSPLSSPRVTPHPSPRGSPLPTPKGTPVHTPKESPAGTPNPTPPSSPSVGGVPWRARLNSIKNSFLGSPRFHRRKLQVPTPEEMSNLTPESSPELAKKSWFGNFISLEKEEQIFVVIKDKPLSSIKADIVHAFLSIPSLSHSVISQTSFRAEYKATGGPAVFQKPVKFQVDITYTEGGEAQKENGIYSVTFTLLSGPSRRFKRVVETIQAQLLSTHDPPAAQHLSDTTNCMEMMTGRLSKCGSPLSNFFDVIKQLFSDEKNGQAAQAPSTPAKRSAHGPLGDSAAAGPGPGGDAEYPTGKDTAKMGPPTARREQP
Sequence of Ribosomal protein S6 kinase alpha-5 (Homo sapiens) (O75582 whole entry, looked up): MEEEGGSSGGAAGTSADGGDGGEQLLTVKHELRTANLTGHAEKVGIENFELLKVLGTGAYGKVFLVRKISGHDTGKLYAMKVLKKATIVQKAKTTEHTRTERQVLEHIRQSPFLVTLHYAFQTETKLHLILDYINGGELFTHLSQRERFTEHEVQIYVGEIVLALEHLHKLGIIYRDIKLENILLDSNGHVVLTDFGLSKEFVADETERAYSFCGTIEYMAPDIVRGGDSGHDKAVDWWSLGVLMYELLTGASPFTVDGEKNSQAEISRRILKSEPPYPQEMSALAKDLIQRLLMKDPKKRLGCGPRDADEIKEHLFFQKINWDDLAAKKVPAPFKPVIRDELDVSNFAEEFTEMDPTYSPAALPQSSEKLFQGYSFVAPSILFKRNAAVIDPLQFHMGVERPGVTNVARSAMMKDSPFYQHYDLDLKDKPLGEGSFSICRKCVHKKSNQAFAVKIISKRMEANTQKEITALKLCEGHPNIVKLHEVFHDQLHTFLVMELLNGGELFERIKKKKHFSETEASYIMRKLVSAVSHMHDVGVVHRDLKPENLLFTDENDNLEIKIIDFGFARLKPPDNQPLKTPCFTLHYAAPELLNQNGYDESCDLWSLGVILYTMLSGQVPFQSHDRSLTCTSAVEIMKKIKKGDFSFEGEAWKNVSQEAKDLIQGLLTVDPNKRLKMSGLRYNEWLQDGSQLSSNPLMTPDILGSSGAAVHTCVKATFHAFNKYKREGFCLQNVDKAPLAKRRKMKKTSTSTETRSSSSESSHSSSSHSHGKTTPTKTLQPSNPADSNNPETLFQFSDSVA
Sequence of Homeodomain-interacting protein kinase 1 (Homo sapiens) (Q86Z02 whole entry, looked up): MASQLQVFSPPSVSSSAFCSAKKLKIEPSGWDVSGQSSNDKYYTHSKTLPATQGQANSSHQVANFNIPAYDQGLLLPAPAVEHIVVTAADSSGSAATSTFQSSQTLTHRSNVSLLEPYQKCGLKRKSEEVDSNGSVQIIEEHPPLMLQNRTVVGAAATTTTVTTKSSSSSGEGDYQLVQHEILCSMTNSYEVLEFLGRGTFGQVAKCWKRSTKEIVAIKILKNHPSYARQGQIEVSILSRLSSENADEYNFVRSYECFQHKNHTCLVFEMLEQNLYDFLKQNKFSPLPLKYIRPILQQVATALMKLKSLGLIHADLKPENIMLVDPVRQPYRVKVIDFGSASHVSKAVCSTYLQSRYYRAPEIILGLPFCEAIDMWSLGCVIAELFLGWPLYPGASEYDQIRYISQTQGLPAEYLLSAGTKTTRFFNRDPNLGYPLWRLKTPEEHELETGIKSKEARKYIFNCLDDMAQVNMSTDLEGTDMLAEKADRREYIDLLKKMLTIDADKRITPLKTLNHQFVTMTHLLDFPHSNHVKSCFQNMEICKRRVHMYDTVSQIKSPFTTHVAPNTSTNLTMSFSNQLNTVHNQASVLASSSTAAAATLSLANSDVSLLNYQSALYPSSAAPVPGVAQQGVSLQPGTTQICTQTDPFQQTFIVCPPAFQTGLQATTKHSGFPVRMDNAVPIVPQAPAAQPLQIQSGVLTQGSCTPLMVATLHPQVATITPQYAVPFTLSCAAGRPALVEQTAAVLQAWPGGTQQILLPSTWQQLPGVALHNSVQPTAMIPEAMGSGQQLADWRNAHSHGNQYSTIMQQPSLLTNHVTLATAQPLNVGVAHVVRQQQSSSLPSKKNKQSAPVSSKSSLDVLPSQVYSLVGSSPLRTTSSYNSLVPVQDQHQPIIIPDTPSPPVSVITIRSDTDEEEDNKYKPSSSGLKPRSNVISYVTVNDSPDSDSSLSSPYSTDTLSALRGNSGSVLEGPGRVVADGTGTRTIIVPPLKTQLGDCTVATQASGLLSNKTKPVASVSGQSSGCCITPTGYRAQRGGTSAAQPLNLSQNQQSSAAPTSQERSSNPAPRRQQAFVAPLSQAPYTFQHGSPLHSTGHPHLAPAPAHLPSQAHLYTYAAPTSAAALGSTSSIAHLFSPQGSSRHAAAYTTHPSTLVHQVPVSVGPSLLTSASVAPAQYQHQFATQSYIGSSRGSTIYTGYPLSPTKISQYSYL
Sequence of Serine/threonine-protein kinase DCLK3 (Homo sapiens) (Q9C098 whole entry): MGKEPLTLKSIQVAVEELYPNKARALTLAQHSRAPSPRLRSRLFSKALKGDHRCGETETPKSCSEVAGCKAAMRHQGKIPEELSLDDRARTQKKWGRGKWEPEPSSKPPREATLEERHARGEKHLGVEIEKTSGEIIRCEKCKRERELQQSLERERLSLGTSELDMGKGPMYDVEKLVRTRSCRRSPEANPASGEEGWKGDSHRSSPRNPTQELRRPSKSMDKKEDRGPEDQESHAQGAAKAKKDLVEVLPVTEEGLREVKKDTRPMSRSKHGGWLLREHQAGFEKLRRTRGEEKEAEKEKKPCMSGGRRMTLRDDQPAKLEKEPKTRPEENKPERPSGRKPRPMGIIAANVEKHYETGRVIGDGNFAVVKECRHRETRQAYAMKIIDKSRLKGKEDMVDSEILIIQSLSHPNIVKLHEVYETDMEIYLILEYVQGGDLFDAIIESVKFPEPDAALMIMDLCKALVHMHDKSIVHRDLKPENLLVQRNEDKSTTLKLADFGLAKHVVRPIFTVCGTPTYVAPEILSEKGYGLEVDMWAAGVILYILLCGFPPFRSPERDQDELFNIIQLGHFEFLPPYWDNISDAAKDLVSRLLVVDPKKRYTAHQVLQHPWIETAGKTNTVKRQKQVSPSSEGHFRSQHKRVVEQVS
Sequence of Insulin-like growth factor 1 receptor (Homo sapiens) (P08069 31-736 limits assumed): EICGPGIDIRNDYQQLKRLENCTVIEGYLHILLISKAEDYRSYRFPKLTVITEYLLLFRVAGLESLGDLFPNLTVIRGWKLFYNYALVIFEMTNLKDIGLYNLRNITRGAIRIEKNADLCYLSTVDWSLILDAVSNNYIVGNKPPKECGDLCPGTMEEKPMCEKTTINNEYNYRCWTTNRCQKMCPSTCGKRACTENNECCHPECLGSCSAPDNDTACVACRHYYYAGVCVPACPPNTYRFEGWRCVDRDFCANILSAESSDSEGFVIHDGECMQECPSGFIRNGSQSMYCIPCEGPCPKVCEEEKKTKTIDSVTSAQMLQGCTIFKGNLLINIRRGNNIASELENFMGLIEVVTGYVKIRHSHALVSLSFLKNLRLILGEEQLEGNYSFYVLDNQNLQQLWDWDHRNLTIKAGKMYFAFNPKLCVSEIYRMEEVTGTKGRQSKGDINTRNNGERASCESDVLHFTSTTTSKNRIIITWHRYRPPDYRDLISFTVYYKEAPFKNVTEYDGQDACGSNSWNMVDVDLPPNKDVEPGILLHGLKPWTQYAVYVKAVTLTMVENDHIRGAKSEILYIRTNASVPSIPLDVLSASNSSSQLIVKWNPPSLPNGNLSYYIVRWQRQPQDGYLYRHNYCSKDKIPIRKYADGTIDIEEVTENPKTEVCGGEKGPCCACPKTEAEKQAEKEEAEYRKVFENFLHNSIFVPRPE
Sequence of Insulin-like growth factor 1 receptor (Homo sapiens) (P08069 741-1367 limits assumed): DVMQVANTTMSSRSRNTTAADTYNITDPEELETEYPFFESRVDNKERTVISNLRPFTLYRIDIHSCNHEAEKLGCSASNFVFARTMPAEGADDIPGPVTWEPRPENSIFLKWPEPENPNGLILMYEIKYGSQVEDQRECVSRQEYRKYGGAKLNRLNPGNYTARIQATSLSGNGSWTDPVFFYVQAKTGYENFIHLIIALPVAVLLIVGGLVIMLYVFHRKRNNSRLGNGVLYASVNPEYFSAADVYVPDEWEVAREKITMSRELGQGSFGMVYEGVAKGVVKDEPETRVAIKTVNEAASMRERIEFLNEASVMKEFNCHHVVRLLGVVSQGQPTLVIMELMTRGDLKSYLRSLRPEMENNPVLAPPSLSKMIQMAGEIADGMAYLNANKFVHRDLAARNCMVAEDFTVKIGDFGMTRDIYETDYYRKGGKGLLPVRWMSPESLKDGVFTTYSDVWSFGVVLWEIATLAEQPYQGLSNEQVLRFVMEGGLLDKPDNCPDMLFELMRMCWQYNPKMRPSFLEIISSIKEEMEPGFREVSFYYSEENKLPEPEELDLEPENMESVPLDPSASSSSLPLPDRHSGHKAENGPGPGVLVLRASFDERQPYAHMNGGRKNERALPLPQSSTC

CCC(=N\O)/C(C)=C/c1ccc(F)c(C)c1 [A-226]
inactive: residual activity [1] 98% | residual activity [2] 100% | residual activity [3] 100% | residual activity [4] 100% | residual activity [5] 100% | residual activity [6] 83% | residual activity [7] 100% | residual activity [8] 100% | residual activity [9] 97% | inhibition [10] 16.7% | inhibition [11] -3.74% | residual activity [12] 100% | residual activity [13] 96% | residual activity [14] 100% | residual activity [15] 100% | residual activity [16] 100% | residual activity [17] 86% | residual activity [18] 97% | residual activity [19] 100% | residual activity [20] 100% | residual activity [21] 96% | residual activity [22] 100% | residual activity [23] 80% | residual activity [24] 100% | residual activity [25] 100% | residual activity [26] 100% | residual activity [27] 82% | inhibition [28] 8.28% | residual activity [29] 100% | residual activity [30] 100% | residual activity [32] 100% | residual activity [33] 100% | residual activity [34] 89% | residual activity [35] 88% | residual activity [36] 76% | residual activity [37] 100% | residual activity [38] 100% | residual activity [39] 80% | residual activity [40] 91% | residual activity [41] 92% | residual activity [42] 96% | residual activity [43] 97%
active: residual activity [31] 46%

CCC(=N\O)/C(C)=C/c1ccc(F)cc1 [A-079]
inactive: residual activity [1] 100% | residual activity [2] 100% | residual activity [3] 77% | residual activity [4] 100% | residual activity [5] 85% | residual activity [6] 96% | residual activity [7] 73% | residual activity [8] 74% | residual activity [9] 100% | inhibition [10] 14.7% | inhibition [11] -4.38% | residual activity [12] 78% | residual activity [13] 75% | residual activity [14] 100% | residual activity [15] 86% | residual activity [16] 100% | residual activity [17] 100% | residual activity [18] 80% | residual activity [19] 96% | residual activity [20] 83% | residual activity [21] 100% | residual activity [22] 60% | residual activity [23] 100% | residual activity [24] 100% | residual activity [25] 100% | residual activity [26] 99% | residual activity [27] 100% | inhibition [28] 13% | residual activity [29] 88% | residual activity [30] 57% | residual activity [31] 86% | residual activity [32] 79% | residual activity [33] 80% | residual activity [34] 100% | residual activity [35] 76% | residual activity [36] 100% | residual activity [37] 80% | residual activity [38] 100% | residual activity [39] 74% | residual activity [40] 90% | residual activity [41] 100% | residual activity [42] 93% | residual activity [43] 100%
